Source: patent publication US20250170027A1, “COLLAGEN CROSS-LINKER AND USES THEREOF” (The Curators of the University of Missouri, priority 2022, published 2025)
One block for each compound: values may come before it.

Columns and labels:
[1] = system: Clostridium histolyticum collagenase; settings: after 1 hour incubation at 37° C.; 0.2 U/ml collagenase; EDTA 5 mM; FIG. 3
Method: The direct inactivation of collagenase by TRI was also determined using a collagenase assay kit. Assays were performed in 96-well microplates with 0.2 U/ml Clostridium histolyticum collagenase incubated with the treatment solutions for up to 24 h according to the manufacturer's instructions. The well-known collagenase inhibitor 5 mM EDTA was used as a positive control. A group without any treatment was included as a negative control. The fluorescence of kinetic of inactivation was monitored at 1, 2, 4, 16 and 24 h of incubation at 37° C. in triplicate at 490 nm/520 nm. Fluorescence at the different time points was determined by subtracting background fluorescence. The collagenase activity was expressed in arbitrary fluorescence units. Then, the activity was calculated in percentage of inhibition according to the untreated negative control (presumed 100% collagenase activity) after 4 h of incubation. Statistical analysis was performed by one-way ANOVA and Games Howell's post hoc (α=0.05).

L929 cells [2] = assay: Effect of direct treatment on cell proliferation (MTS assay); format: cell-based; settings: treatment solutions diluted 1:1000, 1:2000, 1:4000 (v/v) in culture medium; FIG. 5
Method: (§1) The cells were seeded onto 24 and 96-well plates at a density of 2×10^4 cells/cm^2 and incubated at 37° C. in 5% CO2 and 95% relative humidity until the monolayer cells spread over the bottom of the wells.
The direct treatments were conducted on 96-well plates with replacement of original culture medium with culture medium containing different diluted treatment solutions at ratios of 1:1000, 1:2000 and 1:4000 (v/v) and a control group containing only original culture medium. Cell proliferation was assessed with the MTS assay CellTiter 96 AQueous One Solution Cell Proliferation Assay following protocol guidelines specified by the manufacturer. Absorbance was measured using a multimode microplate reader at 460/30 nm at 2 h after addition of MTS reagent. Statistical analysis was performed using a two-way ANOVA for each used concentration followed by Tukey's post hoc (α=0.05).

L929 cells [3] = format: cell-based; settings: dentin disks treated 1 min; 1 or 3 days exposure; FIGS. 6, 7
Method: as §1
Twenty-four teeth were sectioned obtaining 24-dentin disks (approximately 6-mm in diameter). The dentin disks were superficially etched using 32% phosphoric acid gel for 15 s on each side, rinsed thoroughly and placed in 100 μL of treatment solutions. After 1 min of treatment, the treated dentin disks were rinsed in sterile distilled water for 30 s. Treated dentin disks were immediately placed on a permeable polycarbonate membrane insert (6.5 mm in diameter, 3.0 μm pore size) above of cultured cells and covered with 100 μL of medium. After incubation, cell viability assay was used to stain live cells with calcein-AM and dead cells with ethidium homodimer. To distinguish overlapped cells in cell counting, Hoechst 33342 was used as a cell-permeant nuclear counterstain, following the guidelines specified by the manufacturer. Cells were imaged using a fluorescent High Content Microscope with 20× magnification. Cell counting was performed using ImageJ (NIH Image J1.8.0). The percentage of cell proliferation and dead cells were statistically compared to 1-day control using one-way ANOVA and Dunnett's test (α=0.05).

dentin collagen = assay: Biodegradation of dentin collagen by exogenous collagenase (weight loss, HYP release); format: biochemical, human; settings: crosslinker 0.6 wt % in EtOH, 60 s or 1 h treatment; 0.1% collagenase 1 h at 37° C.; FIG. 2A
Method: Following the treatment and rinse, the dentin collagen films were dried (48 h under vacuum) and then exposed to 0.1% collagenase (type I, from Clostridium histolyticum, ≥125 U/mg) degradation for 1 h at 37° C. (n=6×10 films per group). The remnant films were dried as previously described and compared the weight percent before and after collagenase digestion for weight loss analysis (WL). The digestion solution was collected and processed to quantify the amount of HYP released. This processing comprised exposure to 5% Ehrlich's reagent, which binds to HYP and produces a colored solution, the color intensity of which is proportional to the concentration of HYP. Colorimetry was performed by measuring the absorbance at 555 nm in a microplate reader, thereby calculating the HYP μg/mg of collagen during digestion. […] All data for weight loss are separately shown after […] for each sample.

mammalian collagen = assay: Application of crosslinkers to mammalian collagen (biostability, general statement); settings: application of any one of the crosslinkers to mammalian collagen

Compound: O=C(O)CN(CCN(CC(=O)O)CC(=O)O)CC(=O)O [EDTA, ethylenediaminetetraacetic acid]
collagenase inhibition [1]: some collagenase inhibition

Compound: O=CCCCC=O [GA, glutaraldehyde]
cell proliferation (MTS absorbance) compared to the control sample (L929 cells [2]): high cytotoxicity
cytotoxic effect on L929 cells (L929 cells [3]): cytotoxic

weight % change (weight loss) before and after collagenase digestion (dentin collagen): not faring much better
Compound: COC(=O)C1=CO[C@@H](O)[C@@H]2C(CO)=CC[C@H]12 [GEN, genipin]

weight % change (weight loss) before and after collagenase digestion (dentin collagen): not faring much better
Compound: O=c1c(O)c(-c2ccc(O)c(O)c2)oc2cc(O)cc(O)c12 [QC, quercetin]

Compound: O=C(NCCc1ccc(O)c(O)c1)c1cc(C(=O)NCCc2ccc(O)c(O)c2)cc(C(=O)NCCc2ccc(O)c(O)c2)c1 [TRI-1]
biostability of mammalian collagen (mammalian collagen): improves the biostability

Compound: O=C(O)c1cc(C(=O)NCCc2ccc(O)c(O)c2)cc(C(=O)NCCc2ccc(O)c(O)c2)c1 [TRI-2]
biostability of mammalian collagen (mammalian collagen): improves the biostability

Compound: CCOC(=O)c1cc(C(=O)NCCc2ccc(O)c(O)c2)cc(C(=O)NCCc2ccc(O)c(O)c2)c1 [TRI-3]
biostability of mammalian collagen (mammalian collagen): improves the biostability
